Data as given in patent US20250009634A1, “LIQUID COMPOSITION OF CERAMIDES AND PALMITIC ACID AMIDES” (Unifarco S.p.A., priority 2021, published 2025).

Excerpt: The samples were made in the standard quantity of 50 g, sufficient to perform the solubilisation and stability tests. The concentration ranges of the investigated actives and the sample preparation methods were established after a critical reading of the technical data sheets of each raw material.

Row | SMILES | individual solubilisation in the solubilising agent
1 | CCCCCCCCCCCCCCCC(=O)NCCO [PMEA, palmitoylethanolamide] | possible to obtain the individual solubilisation
2 | CCCCCCCCCCCCCCCC(=O)NC(C)C [isopalmide, N-isopropyl-palmitoyl amide] | possible to obtain the individual solubilisation
